# In patent US8574831B2, “Mutational profiles in HIV-1 reverse transcriptase correlated with phenotypic drug resistance” (Virco N.V., priority 2000, dated 2013):
# Test system: HIV with mutations in the HIV protease sequence
# Assay: Phenotypic fold resistance to protease inhibitors, protease mutations 84A/84L/84C/54M/54L/54V in a background (Examples 8-13)
# Type: cell-based, HIV-1
# Experimental: As is the case with the genotyping assays, the recombinant virus assay starts with the amplification of viral target sequences by means of PCR. The amplicons are incorporated into a proviral laboratory clone with sequences homologous to those present in the amplicon deleted. This generates a stock of chimeric viruses. The viruses are tested for their ability to grow in the presence of different concentrations of drugs. Results are obtained by calculating IC50 values for each inhibitor and by reporting the results as IC50 values, expressed in μM concentrations, or by computing the ratio of the IC50 values found for the chimeric virus to the IC50 values found for a wild type susceptible laboratory virus tested in parallel. In the latter case, resistance is expressed as “fold-resistance” compared to a wild-type susceptible HIV-1 strain. In order to meet the need for high-volume testing and a short turn-around time for an individual test, the latest generation of phenotyping assays has undergone further modifications. The use of reporter gene systems for susceptibility testing allows the implementation of laboratory automation and standardization. See Pauwels, et al., J. Virol. Methods 20, 309-321 (1998); Paulous, S., et al., International Workshop on HIV Drug Resistance, Treatment Strategies and Eradication, St. Petersburg, Fla., USA. Abstr. 46 (1997); and Deeks, S. G., et al., 2nd International Workshop on HIV Drug Resistance and Treatment Strategies, Lake Maggiore, Italy. Abstr. 53 (1998).
# The ANTIVIROGRAM® assay (Virco) (WO 97/27480) is based on homologous recombination of patient derived HIV-1 gag/PR/RT sequences into a proviral HIV-1 clone correspondingly deleted for the gag/PR/RT sequences. See Pauwels, et al., J. Virol. Methods 20, 309-321 (1998). A similar assay (Phenosense ViroLogic) is based on enzymatic ligation of patient-derived PR/RT sequences into a correspondingly deleted proviral vector carrying an indicator gene, luciferase, inserted in the deleted HIV-1 envelope gene. See Deeks, S. G., et al., 2nd International Workshop on HIV Drug Resistance and Treatment Strategies, Lake Maggiore, Italy. Abstr. 53 (1998). Hertogs et al. Antimicrob. Agents Chemother. 44(3) 568-573 (2000) the disclosures of which are herein incorporated by reference.
# The methods of monitoring HIV-1 drug resistance, may also be used in combination with phenotypic drug resistance testing of viral isolates. For example, in one embodiment, a phenotypic test is utilized that is based upon the construction of chimeric HIV-1 strains composed of the protease (PR) and reverse transcriptase (RT) gene sequences which are isolated and amplified from the patient viral RNA. These strains may subsequently be recombined inside CD4+ T cells with a standard laboratory isogenic (HXB2) HIV-1 DNA construct from which the PR/RT gene sequences were deleted. The recombinant strains may then be grown in the presence of the above-mentioned antiviral drugs and the susceptibility of the viral isolates may be expressed as fold-change value of the IC50 of the drug on the patient isolates over the IC50 of the drug on a wild-type laboratory reference strain.
compound,measurement,setting,value
"CC(C)(C)NC(=O)[C@@H]1CN(Cc2cccnc2)CCN1C[C@@H](O)C[C@@H](Cc1ccccc1)C(=O)N[C@H]1c2ccccc2C[C@H]1O [Indinavir, indinavir]",Fold change in IC50,"Table 12, V055199, genotype 10I + 33F + 54M + 90M",2.3 fold
same,Fold change in IC50,"Table 13, V19263, genotype 77I",0.4 fold
same,Fold change in IC50,"Table 13, V20160, genotype WT",0.9 fold
same,Fold change in IC50,"Table 13, V021667, genotype 10I",0.7 fold
same,Fold change in IC50,"Table 13, V030496, genotype 10I + 77I",0.4 fold
same,Fold change in IC50,"Table 13, V048868, genotype 10I + 54L + 71V + 77I + 90M",6.2 fold
same,Fold change in IC50,"Table 13, V048874, genotype 10I + 33F + 54L + 71V + 77I + 90M",2.1 fold
same,Fold change in IC50,"Table 13, V048875, genotype 10I + 33F + 54L + 71V + 77I + 90M",3.7 fold
same,Fold change in IC50,"Table 13, V048877, genotype 10I + 33F + 77I + 90M",2.9 fold
same,Fold change in IC50,"Table 13, V048880, genotype 10I + 33F + 77I + 90M",1.3 fold
same,Fold change in IC50,"Table 13, V052940, genotype 71V",0.7 fold
same,Fold change in IC50,"Table 13, V052942, genotype 10I + 71V",0.6 fold
same,Fold change in IC50,"Table 13, V052943, genotype 10I + 90M",0.5 fold
same,Fold change in IC50,"Table 13, V052944, genotype 10I + 90M",0.5 fold
same,Fold change in IC50,"Table 13, V052945, genotype 77I + 90M",0.6 fold
same,Fold change in IC50,"Table 13, V052946, genotype 71V + 90M",0.9 fold
same,Fold change in IC50,"Table 13, V052947, genotype 10I + 77I + 90M",2.9 fold
same,Fold change in IC50,"Table 13, V052948, genotype 10I + 71V + 90M",8.6 fold
same,Fold change in IC50,"Table 13, V052949, genotype 10I + 71V + 77I + 90M",2.7 fold
same,Fold change in IC50,"Table 13, V052950, genotype 33F",0.6 fold
same,Fold change in IC50,"Table 13, V052951, genotype 33F + 77I",0.4 fold
same,Fold change in IC50,"Table 13, V052953, genotype 10I + 33F + 77I",0.8 fold
same,Fold change in IC50,"Table 13, V052954, genotype 33F + 77I + 90M",1.7 fold
same,Fold change in IC50,"Table 13, V052955, genotype 33F + 71V + 90M",5.3 fold
same,Fold change in IC50,"Table 13, V052968, genotype 10L/I + 33F/L + 54L + 77I",1.3 fold
same,Fold change in IC50,"Table 13, V052969, genotype 10I + 33F + 54L + 90M",1.3 fold
same,Fold change in IC50,"Table 13, V052970, genotype 54L",0.6 fold
same,Fold change in IC50,"Table 13, V052971, genotype 10I + 54L",0.7 fold
same,Fold change in IC50,"Table 13, V052972, genotype 54L + 77I",0.8 fold
same,Fold change in IC50,"Table 13, V052973, genotype 10I + 54L + 77I",0.8 fold
same,Fold change in IC50,"Table 13, V052974, genotype 10I + 54L + 90M",1.7 fold
same,Fold change in IC50,"Table 13, V052975, genotype 10I + 54L + 71V + 90M",10.2 fold
same,Fold change in IC50,"Table 13, V052976, genotype 10I + 54L + 71V + 77I + 90M",1.7 fold
same,Fold change in IC50,"Table 13, V053832, genotype 10I + 33F",0.4 fold
same,Fold change in IC50,"Table 13, V053854, genotype 54L + 71V",1.7 fold
same,Fold change in IC50,"Virco ID 214846, genotype 10I + 33F + 54V + 71V + 77I + 90M, vs mean IC50 of wild type laboratory HIV strain",13.8 fold
same,Fold change in IC50,"Virco ID V021667, genotype 10I, vs mean IC50 of wild type laboratory HIV strain",0.7 fold
same,Fold change in IC50,"Virco ID V030496, genotype 10I + 77I, vs mean IC50 of wild type laboratory HIV strain",0.4 fold
same,Fold change in IC50,"Virco ID V048876, genotype 33F + 54V + 77I + 90M, vs mean IC50 of wild type laboratory HIV strain",0.6 fold
same,Fold change in IC50,"Virco ID V048877, genotype 10I + 33F + 77I + 90M, vs mean IC50 of wild type laboratory HIV strain",2.9 fold
same,Fold change in IC50,"Virco ID V048880, genotype 10I + 33F + 77I + 90M, vs mean IC50 of wild type laboratory HIV strain",1.3 fold
same,Fold change in IC50,"Virco ID V052940, genotype 71V, vs mean IC50 of wild type laboratory HIV strain",0.7 fold
same,Fold change in IC50,"Virco ID V052942, genotype 10I + 71V, vs mean IC50 of wild type laboratory HIV strain",0.6 fold
same,Fold change in IC50,"Virco ID V052943, genotype 10I + 90M, vs mean IC50 of wild type laboratory HIV strain",0.5 fold
same,Fold change in IC50,"Virco ID V052944, genotype 10I + 90M, vs mean IC50 of wild type laboratory HIV strain",0.5 fold
same,Fold change in IC50,"Virco ID V052946, genotype 71V + 90M, vs mean IC50 of wild type laboratory HIV strain",0.9 fold
same,Fold change in IC50,"Virco ID V052947, genotype 10I + 77I + 90M, vs mean IC50 of wild type laboratory HIV strain",2.9 fold
same,Fold change in IC50,"Virco ID V052948, genotype 10I + 71V + 90M, vs mean IC50 of wild type laboratory HIV strain",8.6 fold
same,Fold change in IC50,"Virco ID V052949, genotype 10I + 71V + 77I + 90M, vs mean IC50 of wild type laboratory HIV strain",2.7 fold
same,Fold change in IC50,"Virco ID V052950, genotype 33F, vs mean IC50 of wild type laboratory HIV strain",0.6 fold
same,Fold change in IC50,"Virco ID V052951, genotype 33F + 77I, vs mean IC50 of wild type laboratory HIV strain",0.4 fold
same,Fold change in IC50,"Virco ID V052953, genotype 10I + 33F + 77I, vs mean IC50 of wild type laboratory HIV strain",0.8 fold
same,Fold change in IC50,"Virco ID V052954, genotype 33F + 77I + 90M, vs mean IC50 of wild type laboratory HIV strain",1.7 fold
same,Fold change in IC50,"Virco ID V052955, genotype 33F + 71V + 90M, vs mean IC50 of wild type laboratory HIV strain",5.3 fold
same,Fold change in IC50,"Virco ID V052957, genotype 10I + 33F + 54V + 90M, vs mean IC50 of wild type laboratory HIV strain",1.4 fold
same,Fold change in IC50,"Virco ID V052958, genotype 10I + 33F + 54V + 77I + 90M, vs mean IC50 of wild type laboratory HIV strain",16.3 fold
same,Fold change in IC50,"Virco ID V052959, genotype 10I + 33F + 54V + 77I + 90M, vs mean IC50 of wild type laboratory HIV strain",12.8 fold
same,Fold change in IC50,"Virco ID V052960, genotype 10I + 33F + 54V + 71V + 90M, vs mean IC50 of wild type laboratory HIV strain",9.9 fold
same,Fold change in IC50,"Virco ID V052961, genotype 54V, vs mean IC50 of wild type laboratory HIV strain",0.7 fold
same,Fold change in IC50,"Virco ID V052962, genotype 10I + 54V, vs mean IC50 of wild type laboratory HIV strain",0.8 fold
same,Fold change in IC50,"Virco ID V052963, genotype 54V + 77I + 90M, vs mean IC50 of wild type laboratory HIV strain",1.2 fold
same,Fold change in IC50,"Virco ID V052964, genotype 54V + 71V + 90M, vs mean IC50 of wild type laboratory HIV strain",0.7 fold
same,Fold change in IC50,"Virco ID V052965, genotype 10I + 54V + 77I + 90M, vs mean IC50 of wild type laboratory HIV strain",8.2 fold
same,Fold change in IC50,"Virco ID V052966, genotype 10I + 54V + 71V + 90M, vs mean IC50 of wild type laboratory HIV strain",7.7 fold
same,Fold change in IC50,"Virco ID V052967, genotype 10I + 54V + 71V + 77I + 90M, vs mean IC50 of wild type laboratory HIV strain",0.4 fold
same,Fold change in IC50,"Virco ID V053358, genotype 33F + 54V + 77I + 90M, vs mean IC50 of wild type laboratory HIV strain",1.2 fold
same,Fold change in IC50,"Virco ID V053831, genotype 33F + 54V, vs mean IC50 of wild type laboratory HIV strain",5.4 fold
same,Fold change in IC50,"Virco ID V053832, genotype 10I + 33F, vs mean IC50 of wild type laboratory HIV strain",0.4 fold
